In PMC9925730, “Controlled sequential in situ self-assembly and disassembly of a fluorogenic cisplatin prodrug for cancer theranostics” (Nature Communications, 2023):
“And” between values parts separate entries of the source, which are not always exact repeats. Identical values can stand only once.

Key:
HeLa cells = assay: ICP-OES analysis of Pt in HeLa cells (uptake); assay type: cell-based; details: for Amount of Pt / Total amount of Pt: Supplementary Table S1
Procedure: Supplementary Table 1. ICP-OES analysis of Pt in HeLa cells. a Pt drugs Pt element per cell Percentage of Pt element […]
a HeLa cells were untreated or pre-treated with Na3VO4 (10 mM) for 20 min and then incubated with indicated Pt drug (10 μM) for 1 h. Then, the cells were trypsinized, collected, and the cell numbers were counted and digested with trace metal concentrated HNO3 (65~70%) and HCl (36~38%). The amount of Pt element was determined by […]
b Pt per cell represents the average amount of Pt element in one HeLa cell, which was calculated by dividing the total amount of Pt element in cells by the cell number. c Percentage of Pt taken up by cells was calculated by dividing the total amount of Pt elements in cells by the amount of Pt drugs added. Values denote mean ± s.d. (n = 3 independent experiments). […]
The cell […]
lysates were separated according to a reported fragmentation procedure to obtained different cell fractions: pellet sample N (nuclei) was separated by 600 g for 10 min; pellet sample L (lysosomes and mitochondria) separated by 15000 g for 5 min; pellet sample M (plasma membrane) separated 100000g for 60 min and the remaining supernatant was soluble portion cytoplasm named as cell pellet C (cytosol) Pellets N, L, and M were all re-dispersed in 200 μL of D.I. water. Then, the solutions were collected and dropped on a carbon-coated copper grid, followed by freeze-drying respectively. The samples were then examined in a JEM-2800 Transmission Electron […]
Quantitative analysis of Pt in HeLa cells and different subcellular organelles. HeLa […]
cells were seeded in 10-cm dishes at a density of 4×10^6 cells/well and allowed to grow overnight. The cells were incubated with P-CyPt (10 μM), PtIVNPs (10 μM) and CDDP (10 μM) for 1 h, respectively. In P-CyPt + Na3VO4 group, HeLa cells were first incubated with Na3VO4 (10 mM) for 20 min, and then incubated with P-CyPt (10 μM) for another 60 min. After being washed with PBS for three times, the cells were trypsinized, centrifuged and counted. For Pt distribution analysis, the cells were treated with P-CyPt (10 μM) or CDDP (10 μM) for 1 h, and then washed with PBS for three times, followed by incubation with fresh medium for another 24 h. After that, cells were washed gently with 2 mL PBS once. The cells were trypsinized, centrifuged and counted. The cell lysates were separated according to a reported fragmentation procedure to obtained different cell fractions, including N (nuclei), M (plasma membrane), L (lysosomes and mitochondria) and C (cytosol). The Cells and different cell fractions were digested with concentrated HNO3 (65~70%) and HCl (36~38%) at 90 °C for 24 h. The solution was diluted to 5 mL 2% HNO3 and 5% HCl solution, and the concentration of Pt element was measured by ICP-OES, which was further applied to calculate the amount of Pt in cells and subcellular organelles.
Flow cytometry analysis of HeLa cell death. Approximately 2×10^5 cells/well HeLa cells in 2 mL DMEM medium were seeded onto 6-well plates and allowed to grow overnight. The medium was replaced with 1 mL of fresh medium containing P-CyPt (20 μM), PtIVNPs (20 μM) and CDDP (20 μM), respectively. After 2 h incubation, medium was removed and cells were washed with PBS for three times. Then, cells were incubated with fresh medium for another 48 h to induce different levels of apoptosis.
After gentle washing with PBS (×1), the cells were detached from the plates with trypsin (500 μL per well), and the cell pellets were collected after centrifugation at […] at 4 °C for 4 min. After washing with PBS, the pellets were re-suspended in 500 μL PBS buffer and stained with the annexin V-FITC/PI double staining apoptosis detection kit for flow cytometry. All assays were performed according to the manufacturer instructions, and the cell population was analyzed by annexin V-FITC and PI channels. The count number for each flow cytometry analysis was ~5000 to […]

[1] = test system: supercoiled pBR322 plasmid DNA; assay: Ability to break DNA double strand (agarose gel electrophoresis); assay type: biochemical; details: 100 μM, 37 °C, 16 h
Procedure: Evaluation of the ability to break DNA double strand
by different species of Pt compounds. (a) Agarose gel electrophoresis of supercoiled
pBR322 plasmid DNA (10 ng/μL) after incubating with indicated conditions.
represents the linear DNA marker ladder (500-12000 bp); Lane i: DNA; Lane ii: DNA
+ GSH (2 mM); Lane iii: DNA + CDDP (100 μM); Lane iv: DNA + CDDP (100 μM)
+ GSH (2 mM); Lane v: DNA + P-CyPt (100 μM); Lane vi: DNA + P-CyPt (100 μM)
+ GSH (2 mM), Lane vii: DNA +P-CyPt (100 μM) + ALP (500 U/L), Lane viii: DNA
+P-CyPt (100 μM) + ALP (500 U/L) +GSH (2 mM); (b) Agarose gel electrophoresis
of supercoiled pBR322 plasmid DNA (20 ng/μL) after incubating with varying
concentrations of P-CyPt (0, 1, 2, 5, 10, 20, 50 and 100 μM) respectively) plus ALP
(500 U/L), followed by incubation with GSH (2 mM) in Tris buffer at 37 °C for 16 h.
One representative experiment out of two is shown.

[2] = Urine and faeces analysis by HPLC (mCy-containing compounds); assay type: in vivo, mice; set-up: mCy in urine: unit not given beside the values; details: for percentage excreted to the faeces (HPLC) / percentage excreted to the urine (HPLC): after i.v. P-CyPt
[3] = Time period 0-2 h, individual mice, matrix and injected agent not given
[4] = Time period 0-2 h, mean of 3 mice, matrix and injected agent not given
[5] = Time period 2-4 h, individual mice
[6] = Time period 2-4 h, mean of 3 mice
[7] = Time period 4-8 h, individual mice
[8] = Time period 4-8 h, mean of 3 mice
[9] = Time period 8-12 h, mean of 3 mice

SMILES: CC1(C)C(/C=C/C2=C3Oc4cc(OP(=O)(O)O)c(Cl)cc4C=C3CCC2)=[N+](CCCNC(=O)[C@@H](Cc2ccccc2)NC(=O)[C@@H](Cc2ccccc2)NC(=O)CCC(=O)[O][Pt]([NH2])([NH2])([OH])([Cl])[Cl])c2ccccc21 [P-CyPt]
- Pt element per cell (HeLa cells; HeLa cells, Pt drug 10 μM, 1 h, ICP-OES): 24.60 ± 3.5 fmol/cell
- Percentage of Pt element taken up by cells (HeLa cells; HeLa cells, Pt drug 10 μM, 1 h, of Pt drug added): 36.9 ± 5.3%
- Amount of Pt (HeLa cells; individual samples): 20.8193 fmol/cell and 25.1404 fmol/cell and 27.8508 fmol/cell
- Total amount of Pt (HeLa cells; individual samples): 31.255% and 37.742% and 41.811%
- Amount of Pt (HeLa cells; mean of 3 samples): 24.6035 fmol/cell
- Total amount of Pt (HeLa cells; mean of 3 samples): 36.936%
- effect on supercoiled pBR322 DNA ([1]; plus GSH (2 mM)): can significantly relax the supercoiled DNA
- effect on supercoiled pBR322 DNA ([1]; without GSH): cannot bind to and break the DNA double strand
- mCy in urine ([2]; Fig.6e, 0-2 h, mean of 3 mice): 12.76
- mCy in urine ([2]; Fig.6e, 0-2 h, single mice): 12.5823 and 14.2325 and 11.4685
- mCy in urine ([2]; Fig.6e, 2-4 h, mean of 3 mice): 12.43
- mCy in urine ([2]; Fig.6e, 2-4 h, single mice): 12.5615 and 13.5939 and 11.1324
- mCy in urine ([2]; Fig.6e, 4-8 h, mean of 3 mice): 12.56
- mCy in urine ([2]; Fig.6e, 4-8 h, single mice): 12.5588 and 13.6118 and 11.5060
- mCy in urine ([2]; Fig.6e, 8-12 h, mean of 3 mice): 7.02
- mCy in urine ([2]; Fig.6e, 8-12 h, single mice): 7.0621 and 8.1416 and 5.8422
- mCy in urine ([2]; Fig.6f, 0-2 h, mean of 3 mice): 0.53
- mCy in urine ([2]; Fig.6f, 0-2 h, single mice): 0.4663 and 0.7332 and 0.3884
- mCy in urine ([2]; Fig.6f, 2-4 h, mean of 3 mice): 6.03
- mCy in urine ([2]; Fig.6f, 2-4 h, single mice): 6.1714 and 7.3564 and 4.5750
- mCy in urine ([2]; Fig.6f, 4-8 h, mean of 3 mice): 21.29
- mCy in urine ([2]; Fig.6f, 4-8 h, single mice): 22.9482 and 23.3466 and 17.5729
- mCy in urine ([2]; Fig.6f, 8-12 h, mean of 3 mice): 9.19
- mCy in urine ([2]; Fig.6f, 8-12 h, single mice): 7.4602 and 10.7840 and 9.3353
- Compound found in excreta (%), Supplementary Table S5 [2, 3]: 11.1327% and 12.5928% and 10.1473%
- Compound found in excreta (%), Supplementary Table S6 [2, 3]: 0.3965% and 0.6235% and 0.3303%
- Compound found in excreta (%), Supplementary Table S5 [2, 4]: 11.29%
- Compound found in excreta (%), Supplementary Table S6 [2, 4]: 0.45%
- Compound found in excreta (%), Supplementary Table S5 [2, 5]: 5.17% and 5.5947% and 4.582%
- Compound found in excreta (%), Supplementary Table S6 [2, 5]: 4.641% and 5.532% and 3.44%
- Compound found in excreta (%), Supplementary Table S5 [2, 6]: 5.12%
- Compound found in excreta (%), Supplementary Table S6 [2, 6]: 4.54%
- Compound found in excreta (%), Supplementary Table S5 [2, 7]: 4.333% and 4.696% and 3.97%
- Compound found in excreta (%), Supplementary Table S6 [2, 7]: 0.5705% and 0.5804% and 0.4369%
- Compound found in excreta (%), Supplementary Table S5 [2, 8]: 4.33%
- Compound found in excreta (%), Supplementary Table S6 [2, 8]: 0.53%
- Compound found in excreta (%), Supplementary Table S5 [2, 9]: 1.41%
- Compound found in excreta (%), Supplementary Table S6 [2, 9]: 0.06%
- percentage excreted to the faeces (HPLC) ([2]; 2-4 h): 4.54± 1.05% and ~ 4.5%
- percentage excreted to the urine (HPLC) ([2]; 2-4 h): 5.12 ± 0.51%
- percentage excreted to the faeces (HPLC) ([2]; 4-8 h): 0.53 ± 0.080%
- percentage excreted to the urine (HPLC) ([2]; 4-8 h): 4.33 ± 0.055%
- percentage excreted to the faeces (HPLC) ([2]; 8-12 h): 0.059 ± 0.011%
- percentage excreted to the urine (HPLC) ([2]; 8-12 h): 1.41 ± 0.23%
- mCy-containing compounds excreted via hepatobiliary system ([2]; over 12 h, of injected dose): ~ 37.0%
- mCy-containing compounds excreted via renal system ([2]; over 12 h, of injected dose): ~ 44.8%
